Laboratory results: patent US12617777B2, “GPR84 antagonists and uses thereof” (Liminal BioSciences Limited, priority 2021, dated 2026)

Target: T1, human GPR84 receptor (Homo sapiens, UniProt Q9NQS5)
T1 construct: host or cells: HEK293, transient transfection
Experiment: Gαi biosensor BRET assay in HEK293 cells (antagonism of ZQ-16)
Assay type: cell-based
Conditions: for IC50: HEK293 cells, antagonism of 200 nmol/L ZQ-16; for inhibition at 10 µM: HEK293, single concentration 10 μM (designated F); for inhibition at 2 µM: HEK293, single concentration 2 μM (designated A); for inhibition at 25 µM: HEK293, single concentration 25 μM (designated I)
Outline: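 HEK293 cells transiently expressing human GPR84, Gαi2-Rluc8, GFP10-Gγ2 and Gβ1, in Tyrode's buffer pH 7.5. Compounds preincubated 5 min at 37° C, then 200 nmol/L ZQ-16 for 5 min at room temperature; coelenterazine 400A 5 μmol/L. BRET2 acceptor/donor ratio, background- and vehicle-corrected net BRET.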

T1 sequence (Q9NQS5 whole entry): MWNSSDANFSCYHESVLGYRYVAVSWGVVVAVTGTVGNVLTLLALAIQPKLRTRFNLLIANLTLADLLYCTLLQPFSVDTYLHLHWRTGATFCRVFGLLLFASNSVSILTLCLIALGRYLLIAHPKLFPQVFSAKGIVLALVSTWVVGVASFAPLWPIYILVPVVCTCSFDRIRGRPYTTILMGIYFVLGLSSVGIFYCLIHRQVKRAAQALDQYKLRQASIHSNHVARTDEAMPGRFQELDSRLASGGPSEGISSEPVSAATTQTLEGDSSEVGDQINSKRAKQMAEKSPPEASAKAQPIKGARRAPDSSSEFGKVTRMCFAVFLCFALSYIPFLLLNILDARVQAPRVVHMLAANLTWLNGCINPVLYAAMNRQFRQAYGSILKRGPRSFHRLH

SMILES	inhibition at 10 µM	other results
CN(C)c1cc(N2CC(C)(CO)C2)c(F)cc1-c1cn(CC2OCC3(CC3)CO2)nn1 [Compound I-784]	–	IC50: ≤ 300 nM
Cc1c(-c2ccc(C#CC3CC3)cc2)nnn1CC1CCCCS1(=O)=O (stereo not shown) [Compound I-574]	≤ 25%	–
CC1(C)COC(Cn2cc(-c3ccc(N4CC(C)(CO)C4)cc3CC(F)(F)F)nn2)C1 (stereo not shown) [Compound I-740]	–	inhibition at 2 µM: > 75%; IC50: ≤ 300 nM
Cc1ccc(N2CCN(Cc3ccccn3)CC2)cc1-c1cn(CC2CCCCO2)nn1 (stereo not shown) [Compound I-564]	≤ 25%	–
Cc1cc(C#CC2CC2)ccc1-c1cn(C[C@H]2CC[C@@H](C)O2)nn1 [Compound I-225]	25 to 50%	–
CCc1cc(C#CC2CC2)ccc1-c1cn(CC2CCCCO2)nn1 (stereo not shown) [Compound I-865]	≤ 25%	IC50: 300 to 1000 nM
CC1(C)COC(Cn2cncc2-c2ncc(C#CC3CC3)cc2OC2CC2)OC1 [Compound I-832]	≤ 25%	–
CCc1cc(C#CC2CC2)cnc1-c1cn(CC2OCC(C)(C)O2)nn1 (stereo not shown) [Compound I-602]	≤ 25%	–
Cc1cc(C#CCNc2ccncc2)ccc1-c1cn(CC2CCCCO2)nn1 (stereo not shown) [Compound I-122]	25 to 50%	–
Cc1cc(C#CCNC2CC2)ccc1-c1cn(CC2OCC(C)(C)CO2)cn1 [Compound I-820]	–	inhibition at 2 µM: > 75%; IC50: 300 to 1000 nM
Cc1cc(C#CCNc2ccccc2)ccc1-c1cn(CCC2CCCCO2)nn1 (stereo not shown) [Compound I-306]	25 to 50%	–
c1ccc(COc2ccc3c(c2)CCc2cn(CC4CCCCO4)nc2-3)cc1 (single isomer, unassigned) [Compound I-330]	≤ 25%	IC50: 300 to 1000 nM
Cc1cc(OC2CN(Cc3ccccn3)C2)ccc1-c1cn(CC2CCCCO2)nn1 (stereo not shown) [Compound I-514]	–	inhibition at 2 µM: ≤ 25%
Cc1cc(N2CC(C(F)F)C2)ccc1-c1cn(CC2CCCCO2)nn1 (stereo not shown) [Compound I-520]	50 to 75%	–
CN(C)c1cc(N2CC(C)(CO)C2)ccc1-c1cn(CC2OCC3(CC3)CO2)nn1 [Compound I-748]	–	inhibition at 2 µM: > 75%; IC50: ≤ 300 nM
Cc1cc(C#CCN2CCN(c3ccccc3)CC2)ccc1-c1cn(CC2CCCCO2)nn1 (stereo not shown) [Compound I-867]	–	IC50: ≤ 300 nM
CC(=O)N1CCCCC1Cn1cc(-c2ccc(C#CC3CC3)cc2C)nn1 (stereo not shown) [Compound I-139]	≤ 25%	–
Cc1cc(N2CCN(Cc3ccn(C)n3)CC2)ccc1-c1cn(CC2CCCCO2)nn1 (stereo not shown) [Compound I-582]	> 75%	–
COC(=O)C1CCCN1CC#Cc1ccc(-c2cn(CC3CCCCO3)nn2)c(C)c1 (stereo not shown) [Compound I-233]	50 to 75%	–
COC(c1cn(CC2CCCCO2)nn1)c1cc(C#CC2CC2)c(F)cc1C (stereo not shown) [Compound I-688]	> 75%	IC50: 300 to 1000 nM
COC(c1cn(CC2OCC(C)(C)CO2)nn1)c1cc(C#CC2CC2)ccc1C (stereo not shown) [Compound I-592]	50 to 75%	–
C(#CC1CC1)c1ccc(-c2cn(CC3CCCCO3)cn2)cc1 (stereo not shown) [Compound I-333]	–	inhibition at 15 µM (HEK293, single concentration 15 μM (designated H)): ≤ 25%
CCOC(c1cn(CC2CCCCO2)nn1)c1cc(C#CC2CC2)ccc1C (stereo not shown) [Compound I-594]	> 75%	IC50: ≤ 300 nM
Cc1cc(N2CC3(CCN(C)CC3)C2)ccc1-c1cn(CC2CCCCO2)nn1 (stereo not shown) [Compound I-155]	≤ 25%	–

SMILES	inhibition at 10 µM	other results
Cc1cc(C#CCN2CCCN(C)CC2)ccc1-c1cn(CC2CCCCO2)nn1 (stereo not shown) [Compound I-159]	≤ 25%	–
Cc1cc(C#CCNC2CC2)ccc1-c1cn(CC2OCC(C)(C)CO2)nn1 [Compound I-697]	> 75%	IC50: 300 to 1000 nM
CC(c1ccc(C#CC2CC2)cc1)c1cn(CC2CCCCO2)nn1 (stereo not shown) [Compound I-313]	50 to 75%	–
Cc1cc(N2CCN(C(C)c3ccccn3)CC2)ccc1-c1cn(CC2OCC(C)(C)CO2)cn1 (stereo not shown) [Compound I-828]	50 to 75%	IC50: 300 to 1000 nM
Cc1cc(C#CC2CC2)ccc1-c1cn(CC2CCC(F)(F)CO2)nn1 (stereo not shown) [Compound I-207]	50 to 75%	–
Cc1ccc(C#CC2CC2)cc1N(C)c1cn(CC2OCC3(CC3)CO2)nn1 [Compound I-842]	–	inhibition at 2 µM: 50 to 75%
CC1(C)CN(CC#Cc2cnc(-c3cn(C[C@H]4CCCCO4)nn3)c(CC(F)(F)F)c2)C1 [Compound I-818]	> 75%	–
COC(c1cn(CC2CCCCO2)nn1)c1cc(N2CC(C)(C)C2)ccc1C (stereo not shown) [Compound I-593]	≤ 25%	–
Cc1cc(C2CC2)cnc1-c1cn(CC2OCC(C)(C)CO2)nn1 [Compound I-871]	25 to 50%	–
Cc1cc(C#CC2CC2)ccc1-c1cn(CC2CCCCO2)cn1 (stereo not shown) [Compound I-341]	50 to 75%	–
CC(=O)c1cc(C#CC2CC2)ccc1-c1cn(CC2CCCCO2)nn1 (stereo not shown) [Compound I-124]	25 to 50%	–
Cc1cc(C#CCn2cc(C3CC3)nn2)cnc1-c1cn(CC2CCCCO2)nn1 (stereo not shown) [Compound I-732]	≤ 25%	–
Cc1cc(N2CC(C)(CO)C2)cnc1-c1cn(CC2Oc3ccccc3O2)nn1 [Compound I-628]	> 75%	–
FC(F)(F)c1ccc(C#CC2CC2)cc1-c1cn(CC2CCCCO2)nn1 (stereo not shown) [Compound I-179]	25 to 50%	–
Cc1cn(CC2CCCCO2)nc1-c1ccc(C#CC2CC2)cc1 (stereo not shown) [Compound I-316]	–	inhibition at 25 µM: ≤ 25%
FC(F)(F)COc1cc(C#CC2CC2)cnc1-c1cn(CC2OCC3(CCC3)O2)nn1 (stereo not shown) [Compound I-815]	–	inhibition at 2 µM: > 75%
CC1(C)COC(Cn2cc(-c3ccc(N4CC(C)(CO)C4)cc3OC3CC3)nn2)OC1 [Compound I-767]	–	IC50: 300 to 1000 nM
Cc1cc(C#CC2CC2)ccc1-c1cn(CC2CCCOC2)nn1 (stereo not shown) [Compound I-364]	25 to 50%	–
Cc1cc(N2CC(C)(C)C2)cnc1-c1cn(CC2CCCCO2)nn1 (stereo not shown) [Compound I-380]	> 75%	–
Cc1cc(OCc2ccccc2)ccc1-c1cn(CC2CCCCO2)nn1 (stereo not shown) [Compound I-52]	–	inhibition at 25 µM: ≤ 25%
Cc1cc(N2CCC3(CC2)CN(Cc2ccccc2)C3)ccc1-c1cn(CC2CCCCO2)nn1 (stereo not shown) [Compound I-173]	≤ 25%	–
Cc1ccc(C#CC2CC2)cc1C1(c2cn(CC3CCCCO3)nn2)CC1 (stereo not shown) [Compound I-679, 4-(1-(5-(cyclopropylethynyl)-2-methylphenyl)cyclopropyl)-1-((tetrahydro-2H-pyran-2-yl)methyl)-1H-1,2,3-triazole]	> 75%	–
COC(c1cn(CC2CCCCO2)nn1)c1c(C)ccc(C#CC2CC2)c1F (stereo not shown) [Compound I-656]	> 75%	IC50: 300 to 1000 nM
CC1(C)COC(Cn2cc(-c3ncc(C#CC4CC4)cc3C(F)F)nn2)OC1 [Compound I-736]	≤ 25%	–

SMILES	inhibition at 10 µM	other results
Cc1cc(C#CC2CC2)ccc1-c1cn(CC2CN(C)CCO2)nn1 (stereo not shown) [Compound I-181]	≤ 25%	–
C(#CC1CC1)c1ccc2c(c1)CCn1nc(OC[C@H]3COCCO3)cc1-2 (stereo in doubt) [Compound I-332, 2-((1,4-dioxan-2-yl)methoxy)-8-(cyclopropylethynyl)-5,6-dihydropyrazolo[5,1-a]isoquinoline]	≤ 25%	–
CC(C)(C)OCCn1cc(-c2ccc(C#CC3CC3)cc2)nn1 [Compound I-97]	≤ 25%	–
Cc1cc(C#CC2CC2)ccc1-c1nnn(CC2CCCCO2)n1 (stereo not shown) [Compound I-9]	≤ 25%	–
CC1(CO)CN(c2cnc(-c3cn(CC4OCC5(CCC5)O4)nn3)c(Cl)c2)C1 (stereo not shown) [Compound I-807]	> 75%	–
Cc1cc(N2CCN(Cc3ccccn3)CC2)ccc1-c1cn(C[C@H]2CCCCO2)cn1 [Compound I-671]	> 75%	IC50: 1000 to 3000 nM
Cc1cc(C#CC2CC2)ccc1-c1cn(Cc2ccccn2)nn1 [Compound I-312]	25 to 50%	–
FC1(F)CC(C#Cc2cnc(-c3cn(CC4OCC5(CC5)CO4)nn3)c(OC3CC3)c2)C1 (stereo not shown) [Compound I-862]	50 to 75%	–
Cc1cc(N2CCC(N(C)Cc3ccccc3)CC2)ccc1-c1cn(CC2CCCCO2)nn1 (stereo not shown) [Compound I-141]	≤ 25%	–
Cc1ccc(C#CC2CC2)cc1-c1noc(CC2CCCCO2)n1 (stereo not shown) [Compound I-625]	50 to 75%	–
CC1(C)COC(Cn2cc(-c3ncc(C#CCN4CC(C)(CO)C4)cc3OC3CC3)nn2)OC1 [Compound I-799]	> 75%	IC50: ≤ 300 nM
Cc1cc(C2CCCN(Cc3ccccn3)C2)ccc1-c1cn(CC2CCCCO2)nn1 (stereo not shown) [Compound I-546]	50 to 75%	–
Cc1cc(C#CC2CC(F)(F)C2)ccc1-c1cn(CC2CCCCO2)nn1 (stereo not shown) [Compound I-640]	> 75%	–
Cc1ccc(C#CC2CC2)cc1Cc1cn(CC2CCCCO2)nn1 (stereo not shown) [Compound I-299]	–	IC50: > 3000 nM
CC(C)Oc1cc(C#CCN2CC(C)(C)C2)cnc1-c1cn(CC2OCC(C)(C)CO2)nn1 [Compound I-676]	–	inhibition at 2 µM: > 75%; IC50: ≤ 300 nM
CC(C)Oc1cc(C#CCNc2ccccn2)cnc1-c1cn(CC2CC(C)(C)CO2)nn1 (stereo not shown) [Compound I-606]	50 to 75%	–
CCc1cc(N2CC(C)(C)C2)ccc1-c1cn(CC2Oc3ccccc3O2)nn1 [Compound I-647]	–	inhibition at 2 µM: > 75%; IC50: 300 to 1000 nM
Cc1cc(C#CC2CC2)ccc1-c1cn(CC2CCC(=O)N2)nn1 (stereo not shown) [Compound I-542]	–	inhibition at 2 µM: ≤ 25%
Cc1cc(N2CCN(CC3CC4CCN3CC4)CC2)ccc1-c1cn(CC2OCC(C)(C)CO2)nn1 (stereo not shown) [Compound I-661]	≤ 25%	–
Cc1ccc(C#CC2CC2)cc1C(=O)c1cn(CC2CCCCO2)nn1 (stereo not shown) [Compound I-591]	> 75%	IC50: 300 to 1000 nM
Cc1cc(N2CC3(CCN(c4ccccn4)CC3)C2)ccc1-c1cn(CC2CCCCO2)nn1 (stereo not shown) [Compound I-567]	50 to 75%	IC50: 1000 to 3000 nM
Cc1cc(N2CC(C)(NCc3ccccn3)C2)c(F)cc1-c1cn(CC2CCCCO2)nn1 (stereo not shown) [Compound I-737]	> 75%	IC50: 300 to 1000 nM
CS(=O)(=O)c1cc(C#CC2CC2)ccc1-c1cn(CC2CCCCO2)nn1 (stereo not shown) [Compound I-219]	≤ 25%	–
